Measurements from patent publication US12351574B2, “Selective ligands for modulation of GIRK channels” (Northeastern University, priority 2018, dated 2025).

Columns and labels:
[1] = target: T1, GIRK1/4(VT-IV) (Homo sapiens, UniProt P48544+P48549, T94V/V92I); experiment: TEVC in Xenopus oocytes, double mutant GIRK1/4(VT-IV); format: cell-based; settings: GIRK1/4(VT-IV) double mutant
T1 construct: expressed in transfected cells; host or cells: Xenopus laevis oocytes (cRNA injection)
T1 sequence (P48549 1-501): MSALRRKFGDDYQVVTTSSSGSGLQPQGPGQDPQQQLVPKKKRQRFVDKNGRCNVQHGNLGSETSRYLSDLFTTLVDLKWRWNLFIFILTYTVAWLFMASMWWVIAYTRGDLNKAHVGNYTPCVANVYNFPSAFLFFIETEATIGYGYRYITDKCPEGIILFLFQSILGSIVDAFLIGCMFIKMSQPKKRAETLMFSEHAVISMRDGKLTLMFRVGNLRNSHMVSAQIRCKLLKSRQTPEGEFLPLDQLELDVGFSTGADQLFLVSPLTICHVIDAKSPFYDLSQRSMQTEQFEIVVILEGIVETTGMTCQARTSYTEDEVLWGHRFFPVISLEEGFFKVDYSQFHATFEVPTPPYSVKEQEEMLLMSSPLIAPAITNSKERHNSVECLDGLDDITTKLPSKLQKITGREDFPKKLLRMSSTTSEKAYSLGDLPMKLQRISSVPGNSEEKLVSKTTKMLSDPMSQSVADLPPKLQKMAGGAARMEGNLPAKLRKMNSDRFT
T1 sequence (P48544 1-419 V92I/T94V): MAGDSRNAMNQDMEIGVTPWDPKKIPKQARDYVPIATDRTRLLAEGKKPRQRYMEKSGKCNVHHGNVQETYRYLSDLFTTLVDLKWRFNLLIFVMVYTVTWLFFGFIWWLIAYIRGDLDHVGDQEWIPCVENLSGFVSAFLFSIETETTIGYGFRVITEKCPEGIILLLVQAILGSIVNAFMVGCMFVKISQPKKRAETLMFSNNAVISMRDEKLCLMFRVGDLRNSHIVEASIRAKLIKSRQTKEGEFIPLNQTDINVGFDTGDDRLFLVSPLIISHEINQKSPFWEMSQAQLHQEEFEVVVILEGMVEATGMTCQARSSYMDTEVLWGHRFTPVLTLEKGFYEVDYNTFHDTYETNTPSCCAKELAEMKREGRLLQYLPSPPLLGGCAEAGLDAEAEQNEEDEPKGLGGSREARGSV
Description: Molecular biology: For Xenopus oocyte expression, human GIRK1 and human GIRK4 cDNAs were subcloned into pGEMHE. For mammalian expression, human GIRK1 and human GIRK4 cDNAs were subcloned into pcDNA3 and pcDNA3.1/V5-His B, respectively (Invitrogen). Mouse GIRK2 cDNA was subcloned in the dual-function vector, pXoom. Point mutations were introduced using a standard Pfu-based mutagenesis technique according to the QuikChange protocol (Agilent). Mutations were verified by sequencing.
Electrophysiology of oocytes: Whole-oocyte currents were measured by conventional two-electrode voltage clamp (TEVC) with a GeneClamp 500 amplifier (Axon Instruments). Agarose cushion microelectrodes were filled with 1.5% (w/v) agarose in 3 M KCl and were used with resistances between 0.1 and 1.5 megaohms. […] Barium-sensitive basal currents from both groups, 1) Vehicle, 2) single concentration at 10 μM and 3) multiple concentrations of ML297 or GAT compounds in the presence of HK solution, were assessed at −80 mV using TEVC. Barium-sensitive currents were normalized to average basal current in the vehicle solutions. The HK solution contained the following: 96 mM KCl, 1 mM NaCl, 1 mM MgCl2, 5 mM KOH/HEPES, pH 7.4. The barium solution consisted of HK+10 mM BaCl2. Five to ten oocytes from the same batch (same frog) were recorded for each group, and the experiments were repeated in at least four batches. Data acquisition and analysis were carried out using pClamp9 (Molecular Devices) and OriginPro (Microcal) software.
To test these computational predictions, the inventors mutated each or both of the two M1 key wild-type GIRK4 subunit residues to the corresponding GIRK2 residues (GIRK4-V92I, GIRK4-T94V, GIRK4-V92I/T94V or GIRK4-dm) and vice-versa the GIRK2 residues to the corresponding GIRK4 ones (GIRK2-I97V, GIRK2-V99T, GIRK2-I97V/V99T or GIRK2-dm) (FIG. 35). […]

[2] = target: human ERG (hERG) channels (Homo sapiens, UniProt Q12809); settings: 5 µM
Method: In FIG. 52A, human ERG (hERG) channels were expressed in Xenopus oocytes and studied by two-electrode voltage clamp (TEVC). In FIG. 52A, hERG tail-current magnitude was assessed at −50 mV, following a 4 second test step to 20 mV from a holding voltage of −100 mV. The test pulse was repeated every 10-seconds. […] Two-electrode voltage-clamp and data analysis: Whole-oocyte currents were measured by two-electrode voltage clamp (TEVC) with GeneClamp 500 (Molecular Devices), or TEC-03X (NPI) amplifiers. […] The oocytes were bathed in ND96 recording solution comprising, in mM: KCl 2, NaCl 96, MgCl2 1 and HEPES 5, buffered to pH 7.4 with KOH. Where indicated, GIRK channel currents were assessed in a high K^+ recording solution comprising, in mM: KCl 96, NaCl 2, MgCl2 1 and HEPES 5, buffered to pH 7.4 with KOH. Currents were digitized using a USB interface (National Instruments) and recorded using WinWCP software (University of Strathclyde). To study GIRK channels, oocytes were held at 0 mV, and currents were assessed by 100 ms ramps from −80 to +80 mV that were repeated every second. The effect of the reagents was determined at −80 mV, then the channels were blocked by 5 mM BaCl2. Block was expressed as the percent-current block normalized to the maximum current. Between 8-12 oocytes from different Xenopus frogs were studied per experiment.

human ERG (hERG) channels, sequence (Q12809 whole entry): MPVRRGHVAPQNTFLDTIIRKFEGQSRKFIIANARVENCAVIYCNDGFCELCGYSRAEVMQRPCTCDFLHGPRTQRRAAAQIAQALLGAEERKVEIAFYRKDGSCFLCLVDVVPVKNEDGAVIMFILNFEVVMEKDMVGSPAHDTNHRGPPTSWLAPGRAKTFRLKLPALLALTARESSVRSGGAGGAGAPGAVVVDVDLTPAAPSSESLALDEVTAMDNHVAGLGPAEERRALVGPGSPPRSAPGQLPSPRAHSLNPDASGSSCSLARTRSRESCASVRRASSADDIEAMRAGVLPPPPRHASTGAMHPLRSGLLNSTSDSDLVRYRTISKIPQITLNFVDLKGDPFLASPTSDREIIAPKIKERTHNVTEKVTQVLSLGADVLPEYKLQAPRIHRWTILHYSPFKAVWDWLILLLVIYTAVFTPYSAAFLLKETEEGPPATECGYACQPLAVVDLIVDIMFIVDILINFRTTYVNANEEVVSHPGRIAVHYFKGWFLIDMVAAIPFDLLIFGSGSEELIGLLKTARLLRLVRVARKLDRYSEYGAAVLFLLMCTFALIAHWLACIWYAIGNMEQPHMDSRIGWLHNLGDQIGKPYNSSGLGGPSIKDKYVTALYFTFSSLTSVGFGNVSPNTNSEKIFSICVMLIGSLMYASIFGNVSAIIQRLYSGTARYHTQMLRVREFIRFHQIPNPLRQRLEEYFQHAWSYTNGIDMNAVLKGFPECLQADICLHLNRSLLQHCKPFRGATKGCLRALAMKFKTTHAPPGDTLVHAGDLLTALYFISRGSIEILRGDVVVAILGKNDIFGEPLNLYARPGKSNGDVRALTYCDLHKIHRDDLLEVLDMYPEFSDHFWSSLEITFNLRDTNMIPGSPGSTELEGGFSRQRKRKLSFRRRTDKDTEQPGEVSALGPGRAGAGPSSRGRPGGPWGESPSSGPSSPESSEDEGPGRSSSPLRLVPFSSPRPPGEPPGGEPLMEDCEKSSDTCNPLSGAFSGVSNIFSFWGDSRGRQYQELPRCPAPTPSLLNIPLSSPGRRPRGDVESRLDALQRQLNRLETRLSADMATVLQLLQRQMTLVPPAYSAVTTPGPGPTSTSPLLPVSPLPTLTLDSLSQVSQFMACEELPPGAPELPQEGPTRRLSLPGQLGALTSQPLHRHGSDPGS

Row | EC50 [1] [nM] | EMAX [1] | Emax ([1]; read-out: EMAX, % of the control GIRK1/2) [%] | Structure (SMILES) | inhibition of the hERG tail current [2] [%]
1 | 550 ± 110 | 1.76±0.03 | 75 | Cc1cc(NC(=O)Nc2ccc(Br)s2)n(-c2ccccc2)n1 [GAT1508, 1-(5-bromothiophen-2-yl)-3-(3-methyl-1-phenyl-1H-pyrazol-5-yl)urea] | 
2 |  |  |  | Cc1cc(NC(=O)Nc2ccc(F)c(F)c2)n(-c2ccccc2)n1 [ML297, reference compound] | ~40
